Data as given in PubChem BioAssay (NCI).
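Tested at 5 concentrations; 48 h exposure; 96-well plates; endpoints linearly interpolated, else capped at highest concentration. GI50 marks 50% less growth. TGI denotes the concentration required for complete inhibition of growth.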

What was measured:
Assay in all cases: DTP human tumour cell line panel, 48 h
[1] = test system: KM12 colon
[2] = test system: T-47D breast
[3] = test system: NCI/ADR-RES ovarian
[4] = test system: K-562 leukemia
[5] = test system: SW-620 colon
[6] = test system: MDA-MB-435
[7] = test system: UACC-257 melanoma
[8] = test system: TK-10 renal
[9] = test system: CAKI-1 renal
[10] = test system: BT-549 breast
[11] = test system: NCI-H522 lung
[12] = test system: EKVX NSCLC
[13] = test system: COLO 205 colon

Row | Structure (SMILES) | TGI [1] [µM] | TGI [2] [µM] | TGI [3] [µM] | TGI [4] [µM] | TGI [5] [µM] | TGI [6] [µM] | TGI [7] [µM] | TGI [8] [µM] | TGI [9] [µM] | TGI [10] [µM] | TGI [11] [µM] | TGI [12] [µM] | TGI [13] [µM] | GI50 [5] [µM] | GI50 [6] [µM]
1 | FC1=C2CCCCCC2SC1(F)F (stereo not given) | > 100 | > 100 | > 100 | 47.8 | 28.9 | 70.7 | > 100 | > 100 | > 100 | > 100 | 29.2 | > 100 | 39.2 |  | 
2 | COC(=O)c1ccc(NCc2cc(O)ccc2O)cc1 | 29.6 | 3.4 | 36.9 | 15.1 | 23.4 | 17.3 | 29.2 | 31.6 | 37.4 | 2.63 | 2.06 | 37.1 | 29 |  | 
3 | COCCOC(=O)C(C)=[N+]=[N-] | > 100 | > 100 | > 100 | > 100 | > 100 | > 100 | > 100 | > 100 | > 100 | > 100 | > 100 | > 100 | > 100 |  | 
4 | C/C=C/[C@H](O[Si](C)(C)C(C)(C)C)[C@@H](O)/C=C/C(=O)OCC | 32.3 | 89.8 | 76.8 | 43.9 | 39.2 | 38.5 | 40.8 | 75.6 | 34.2 | 65.4 | 30.3 | 45.4 | 40.6 |  | 
5 | C=C(C)C12CC3CC/C(=N/O)C(C1)C3(N1CCOCC1)C/C2=N/O (stereo not given) | > 100 | > 100 | > 100 | > 100 | > 100 | > 100 | > 100 | > 100 | > 100 | > 100 | > 100 | > 100 | > 100 |  | 
6 | c1ccc(CC2(c3cc4ccccc4[nH]3)OCCO2)nc1 | > 100 | > 100 | > 100 | > 100 | > 100 | > 100 | > 100 | > 100 | > 100 | > 100 | > 100 | > 100 | > 100 |  | 
7 | O=C(NNC(=O)c1ccccc1O)c1ccc(O)cc1 | > 100 | > 100 | 90.9 | > 100 | > 100 | > 100 | > 100 | > 100 | > 100 | > 100 | 56.7 | > 100 | > 100 |  | 
8 | CC(=O)c1cc(C)n2c1CS[C@@H]2c1ccccc1 | > 100 | > 100 | > 100 | > 100 | > 100 | > 100 | > 100 | > 100 | > 100 | > 100 | > 100 | > 100 | 29 |  | 
9 | COc1cc2c(cc1OC)C(=O)N(NC1=NCCN1)C2=O | > 100 | > 100 | > 100 | > 100 | > 100 | > 100 | > 100 | > 100 | > 100 | > 100 | > 100 | > 100 | > 100 |  | 
10 | Cc1ccc2c(=O)cc(-c3sc4ccccc4c3C)[nH]c2n1 | 36.4 | 55.8 | 47.6 | > 100 | 65.8 | 17.8 | > 100 | > 100 | 53.3 | 44.7 | 42.3 | 88.2 | 65.8 | 19.8 | 4.84
11 | O=c1[nH]c2c(c(=O)[nH]1)SSC2 | 38.8 | 25.2 | 8.76 | 5.52 | 29.9 | 4.67 | 14.8 | 29.9 | 44.5 | 6.65 | 38.5 | > 81.4 | 50.7 |  | 
12 | CC(=O)O[C@@H](C1C[C@@H](C)[C@H]2[C@@](O)(O1)[C@H](O)[C@@]1(C)C3=CC[C@H]4C(C)(C)[C@@H](OC5OCC(O)C(O)C5O)CC[C@@]45C[C@@]35CC[C@]21C)C(C)(C)O (stereo not given in full) | 58.1 | 67.7 | > 100 | > 100 | > 100 | 53.3 | 38.4 | 69.5 | > 100 | 80.8 | 36.9 | 61.6 | 48.4 |  | 
13 | O=C(CSC1=NNC2(C(=O)N1)c1ccccc1-c1ccccc12)NC(=S)Nc1ccccc1 | > 10 | > 10 | > 10 | > 10 | > 10 | > 10 | > 10 | > 10 | > 10 | > 10 | > 10 | > 10 | > 10 |  | 
14 | Cc1cc(-c2nc3cccc(F)c3s2)ccc1N | > 100 | > 100 | > 100 | > 100 | > 100 | > 100 | > 100 | > 100 | > 100 | > 100 | > 100 | > 100 | > 100 |  | 
15 | CCOP(=O)(OCC)/C(C#N)=C/c1c[nH]c2ccccc12 | > 100 | > 100 | > 100 | > 100 | > 100 | > 100 | > 100 | > 100 | > 100 | > 100 | > 100 | > 100 | > 100 |  | 
16 | CC(C)(C)OC(=O)N(CCCCNCc1ccc2ccccc2c1)CCCNCc1ccc2ccccc2c1 | 2.73 | 3.44 | 3.02 | 1.11 | 3.54 | 3.47 | 3.42 | 3.07 | 2.45 | 3.25 | 3.07 | 3.05 | 2.72 |  | 
